Literature values as cited in patent US20230129262A1, “METHODS AND PHARMACEUTICAL COMPOSITIONS OF THROMBOXANE A2 RECEPTOR ANTAGONIST FOR THE TREATMENT OF COVID-19” (priority 2020, published 2023).
Where two headings read alike, the source gives them in different places.

What was measured:
[1] = tested on: TP receptor; conditions: TP receptor blockade, several cited studies
[2] = biological target: T1, TP receptors (Rattus norvegicus, UniProt P34978); conditions: infusion of the TxA2 mimetic, preclinical studies (Bertolino, Valentin et al. 1995)
T1 sequence (P34978 1-341): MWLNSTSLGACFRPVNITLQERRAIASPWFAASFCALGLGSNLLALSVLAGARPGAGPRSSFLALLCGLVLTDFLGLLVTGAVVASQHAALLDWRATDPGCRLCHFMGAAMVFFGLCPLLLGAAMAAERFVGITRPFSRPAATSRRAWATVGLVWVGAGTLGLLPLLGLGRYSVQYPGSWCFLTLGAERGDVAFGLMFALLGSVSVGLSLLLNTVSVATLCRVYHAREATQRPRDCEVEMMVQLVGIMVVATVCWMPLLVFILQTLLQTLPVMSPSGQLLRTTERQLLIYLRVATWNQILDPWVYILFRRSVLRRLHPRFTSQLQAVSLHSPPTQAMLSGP

[3] = tested on: platelet activation; conditions: Tarantino, Amadio et al. 2016
[4] = biological target: T2, TP receptor (Mus musculus, UniProt P30987); conditions: pressure-overload model of pulmonary arterial hypertension (West, Voss et al. 2016)
T2 sequence (P30987 1-341): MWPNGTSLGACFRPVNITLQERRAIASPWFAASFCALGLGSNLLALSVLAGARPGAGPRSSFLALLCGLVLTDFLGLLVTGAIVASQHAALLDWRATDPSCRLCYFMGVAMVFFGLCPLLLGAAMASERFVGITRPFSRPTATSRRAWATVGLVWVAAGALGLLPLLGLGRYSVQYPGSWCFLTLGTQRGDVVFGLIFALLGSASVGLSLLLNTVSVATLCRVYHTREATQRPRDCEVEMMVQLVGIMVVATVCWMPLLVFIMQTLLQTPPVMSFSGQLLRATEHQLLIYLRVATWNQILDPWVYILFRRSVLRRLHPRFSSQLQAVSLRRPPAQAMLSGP

[5] = biological target: T2, TP receptor; conditions: bleomycin model of pulmonary fibrosis (Suzuki, Kropski et al. 2021)
[6] = biological target: T2, TP receptor; conditions: chronic hypoxia in mice, potentiated in COX-2 knock-out mice (Cathcart, Tamosiuniene et al. 2008)
[7] = biological target: T2, TP receptor; conditions: model of Duchenne muscular dystrophy (West, Galindo et al. 2019)
[8] = tested on: TP receptor
[9] = biological target: T3, TP receptor (Homo sapiens, UniProt P21731); conditions: patients with acute lung injury; by selectively relaxing pulmonary veins and decreasing post-capillary resistance (Schuster, Kozlowski et al. 2001)
T3 sequence (P21731 1-343): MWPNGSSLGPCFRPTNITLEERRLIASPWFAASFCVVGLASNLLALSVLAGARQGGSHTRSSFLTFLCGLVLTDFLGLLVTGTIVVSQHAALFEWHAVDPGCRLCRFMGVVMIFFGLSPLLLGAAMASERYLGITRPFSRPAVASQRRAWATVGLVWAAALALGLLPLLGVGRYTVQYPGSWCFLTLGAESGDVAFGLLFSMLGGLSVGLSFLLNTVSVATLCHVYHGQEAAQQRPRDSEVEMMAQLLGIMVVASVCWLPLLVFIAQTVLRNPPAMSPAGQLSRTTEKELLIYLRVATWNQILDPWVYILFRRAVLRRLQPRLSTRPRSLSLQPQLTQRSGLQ

C[C@H](c1ccccc1)[C@@H](O)/C=C/[C@@H]1[C@H](C/C=C\CCCC(=O)O)[C@H]2CC[C@@H]1O2 [SQ28668]
lung injury-associated pulmonary hypertension, hypoxemia, and pulmonary edema [1]: inhibited

CCCCCCC(=O)NCC(=O)NC[C@H]1[C@@H](C/C=C\CCCC(=O)O)[C@@H]2CC[C@H]1O2 [SQ30741]
lung injury-associated pulmonary hypertension, hypoxemia, and pulmonary edema [1]: inhibited

CCCCC[C@H](O)/C=C/[C@@H]1[C@@H](C/C=C\CCCC(=O)O)[C@H]2CO[C@@H]1C2 [U-16,619, 9,11-dideoxy-9α, 11α-methanoepoxy prostaglandin F2α]
plasma fluid and protein accumulation in the lung [2]: strongly increased

CC(=O)Oc1ccccc1C(=O)O [aspirin, acetylsalicylic acid]
mortality (high-dose aspirin (1,000 mg/day), compared to propensity score matched COVID-19 controls (Liu, Huang et al. 2021)): reduced
risk of mechanical ventilation, ICU admission, and in-hospital mortality (low-dose aspirin use, hospitalized COVID-19 patients (Chow, Khanna et al. 2021)): decreased risk
platelet activation in venous thrombosis [3]: prevents

CCCCCNC(=O)c1coc([C@H]2[C@@H](Cc3ccccc3CCC(=O)O)[C@@H]3CC[C@H]2O3)n1 [ifetroban, 3-[2-[[(1S,2R,3S,4R)-3-[4-(pentylcarbamoyl)-1,3-oxazol-2-yl]-7-oxabicyclo[2.2.1]heptan-2-yl]methyl]phenyl]propanoic acid]
lung injury-associated pulmonary hypertension, hypoxemia, and pulmonary edema [1]: inhibited
cardiac function [4]: improves
right ventricular fibrosis [4]: dramatically decreases
development of fibrosis [5]: blocked
pulmonary hypertension and pulmonary intravascular thrombosis [6]: prevented
cardiac function [7]: improves
right ventricular fibrosis [7]: dramatically decreases
arterial and tissue oxygenation ([8]; compared with septic controls (Quinn and Slotman 1999)): significantly increased
systemic and pulmonary vasoconstriction ([8]; sepsis animal model (Quinn and Slotman 1999)): ameliorated
pulmonary capillary pressure [9]: reduced
